What was measured:
Type in all cases: cell-based
BRK-BaF3 cells = test: Cell antiproliferative activity assay (CCK-8), BRK-BaF3; conditions: 72 h, CCK-8, 3 days incubation
Method in brief: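 Growth inhibition over 3 days, with compound serially diluted 3-fold from a 10 µM top concentration. Cells seeded at 100,000 cells/mL; WT-BaF3 medium carried 10% WEHI supernatant as the IL-3 source. Viability read by CCK-8 OD450 after 2-4 h; IC50 from blank-subtracted curve fit.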

WT-BaF3 cells = test: Cell antiproliferative activity assay (CCK-8), WT-BaF3 (broad-spectrum cytotoxicity); conditions: 72 h; WT-BaF3 cells (IL-3 supplemented), CCK-8, 3 days incubation
Description: The activity of compounds against BRK kinase can be evaluated by their inhibition of the growth of the BRK kinase-stably transfected BaF3 cell line (BRK-BaF3) and wild-type BaF3 cells (WT-BaF3). […] The larger the ratio of the half-maximal growth inhibitory concentration (IC50) of a compound between WT-BaF3 and BRK-BaF3 cells, the better the selectivity of the compound.
(§1) BRK-BaF3, WT-BaF3, WEHI cell line, and breast cancer cell line T47D were cultured using RPMI 1640 Basal medium or DMEM (Dulbecco's Modified Eagle Medium) (Shanghai Peiyuan Biotechnology, L220KJ), supplemented with 10% FBS (Gibco, REF 10099-141C) and 1% P/S (Shanghai Peiyuan Biotechnology, S110JV), in an incubator (Thermo 3020) at 37°C with 5% CO2. Cell viability was above 95%. Cells were passaged at a 3:1 ratio every 3-4 days. For WT-BaF3 cells, WEHI cells were first cultured, and their culture supernatant was filtered through a 0.22 µm filter. This supernatant was added at 10% to the regular culture medium to supplement IL-3 required for WT-BaF3 cell proliferation, which served as the culture medium for WT-BaF3. For testing, cells were first collected and counted, then prepared into a cell suspension at 100,000 cells/mL and plated at 100 µL per well. Drug concentrations started from 10 µM and were serially diluted 3:1. After incubation for 3 days, 20 µL of CCK-8 detection reagent (Targetmol C005) was added to each well. After incubation for 2-4 hours, OD450 was measured using a microplate reader (Varioskan LUX, Thermo Scientific). After subtracting the blank background, the curve was fitted and the IC50 was calculated using XLfit software.

T47D cells = test: Cell antiproliferative activity assay (CCK-8), T47D; conditions: Homo sapiens, 72 h, breast cancer cell line T47D, incubation for 3 days
Description: as §1
In addition, the following table exemplarily lists the IC50 values of some compounds of the present invention against T47D cells.

IC50 (BRK-BaF3 cells) [nM]	IC50 (T47D cells) [nM]	SMILES	IC50 (WT-BaF3 cells) [nM]
≤ 20	–	Cc1c[nH]c(=O)cc1-c1cc(C(C)C)c2nc(Nc3cnn(C4COC4)c3C)ncc2c1 [III-41]	> 2500
≤ 20	–	Cc1c[nH]c(=O)cc1-c1cc(C2CC2)c2nc(Nc3cnn(C4COC4)c3C)ncc2c1 [III-83]	> 2500
≤ 20	–	Cc1nn(C)cc1Nc1ncc2cc(-c3c(C#N)cnn3C)cc(C(C)C)c2n1 [III-86]	> 2500
≤ 20	–	Cc1nn(C)cc1Nc1ncc2cc(-c3c(C)ncnc3C)cc(C(C)C)c2n1 [III-93]	> 2500
≤ 20	–	COCCn1cc(Nc2ncc3cc(-c4c(C)ncnc4C)cc(C(C)C)c3n2)c(C)n1 [III-94]	> 2500
20 to 100	–	Cc1nn(C2COC2)cc1Nc1ncc2cc(-c3c(C)ncnc3C)cc(C(C)C)c2n1 [III-95]	500 to 2500
20 to 100	–	Cc1nn(CC(N)=O)cc1Nc1ncc2cc(-c3cncnc3C)cc(C(C)C)c2n1 [III-96]	> 2500
20 to 100	–	Cc1nn(C2COC2)cc1Nc1ncc2cc(-c3c(C)ncnc3C)cc(C3CC3)c2n1 [III-98]	500 to 2500
≤ 20	–	Cc1nn(C2COC2)cc1Nc1ncc2cc(-c3nccnc3C)cc(C(C)C)c2n1 [III-104]	> 2500
≤ 20	–	Cc1nn(C2CCN(C)CC2)cc1Nc1ncc2cc(-c3nccnc3C)cc(C(C)C)c2n1 [III-106]	500 to 2500
≤ 20	–	Cc1nccnc1-c1cc(C(C)C)c2nc(Nc3cnn(C4CCN(C)CC4)c3C)ncc2c1 [III-107]	> 2500
≤ 20	–	Cc1nn(CCN)cc1Nc1ncc2cc(-c3nccnc3C)cc(C(C)C)c2n1 [III-108]	100 to 500
≤ 20	–	CCN(C)CCn1cc(Nc2ncc3cc(-c4nccnc4C)cc(C(C)C)c3n2)c(C)n1 [III-109]	> 2500
≤ 20	–	COCCN(C)CCn1cc(Nc2ncc3cc(-c4nccnc4C)cc(C(C)C)c3n2)c(C)n1 [III-110]	> 2500
≤ 20	–	Cc1nn(CC(N)=O)cc1Nc1ncc2cc(-c3nccnc3C)cc(C(C)C)c2n1 [III-111]	> 2500
20 to 100	–	Cc1nn(CCN=S(C)(C)=O)cc1Nc1ncc2cc(-c3nccnc3C)cc(C(C)C)c2n1 [III-112]	> 2500
≤ 20	–	Cc1nn(C2COC2)cc1Nc1ncc2cc(-c3nccnc3C)cc(C3CC3)c2n1 [III-113]	500 to 2500
≤ 20	–	Cc1nn(CC(N)=O)cc1Nc1ncc2cc(-c3nccnc3C)cc(C3CC3)c2n1 [III-114]	500 to 2500
20 to 100	–	Cc1nn(C)cc1Nc1ncc2cc(-c3cncc(F)c3C(N)=O)cc(C(C)C)c2n1 [III-127]	> 2500
≤ 20	–	Cc1nn(CC(N)=O)cc1Nc1ncc2cc(-c3cccnc3C)cc(C(C)C)c2n1 [III-128]	> 2500

The next lines start with the compound.

SMILES	IC50 (BRK-BaF3 cells) [nM]	IC50 (T47D cells) [nM]	IC50 (WT-BaF3 cells) [nM]
Cc1nn(CCO)cc1Nc1ncc2cc(-c3ccnc(N)c3)cc(C(C)C)c2n1 [I-14]	≤ 20	500 to 1000	500 to 2500
Cc1nn(CCO)cc1Nc1ncc2cc(-c3cccnc3C)cc(C(C)C)c2n1 [I-22]	≤ 20	500 to 1000	500 to 2500
Cc1nn(CCO)cc1Nc1ncc2cc(-c3cccnc3N)cc(C(C)C)c2n1 [I-27]	≤ 20	500 to 1000	500 to 2500
Cc1ccncc1-c1cc(C(C)C)c2nc(Nc3cn(CCO)nc3C)ncc2c1 [I-32]	≤ 20	≤ 500	500 to 2500
Cc1nn(CCO)cc1Nc1ncc2cc(-c3cncc(F)c3C)cc(C(C)C)c2n1 [I-36]	≤ 20	≤ 500	500 to 2500
Cc1ccc(-c2cc(C(C)C)c3nc(Nc4cn(CCO)nc4C)ncc3c2)c(F)n1 [I-39]	20 to 100	≤ 500	100 to 500
Cc1nn(CCO)cc1Nc1ncc2cc(-c3cc(F)cnc3C)cc(C(C)C)c2n1 [I-41]	≤ 20	500 to 1000	> 2500
Cc1ccnc(F)c1-c1cc(C(C)C)c2nc(Nc3cn(CCO)nc3C)ncc2c1 [I-46]	≤ 20	≤ 500	500 to 2500
Cc1nn(CCO)cc1Nc1ncc2cc(-c3c(F)ccnc3N)cc(C(C)C)c2n1 [I-48]	≤ 20	500 to 1000	> 2500
Cc1nn(CCCO)cc1Nc1ncc2cc(-c3cccnc3)cc(C(C)C)c2n1 [I-53]	≤ 20	≤ 500	500 to 2500
CC(C)c1cc(-c2cccnc2)cc2cnc(Nc3cn(CCO)nc3C(F)F)nc12 [I-54]	≤ 20	500 to 1000	500 to 2500
CC(C)c1cc(-c2cccnc2)cc2cnc(Nc3cn(CCO)nc3Cl)nc12 [I-55]	≤ 20	≤ 500	500 to 2500
Cc1ccncc1-c1cc(C(C)C)c2nc(Nc3cn(CC(C)(C)O)nc3C)ncc2c1 [I-56]	≤ 20	≤ 500	500 to 2500
Cc1nn(CC(C)(C)O)cc1Nc1ncc2cc(-c3cccnc3C)cc(C(C)C)c2n1 [I-57]	≤ 20	500 to 1000	100 to 500
Cc1ccncc1-c1cc(C(C)C)c2nc(Nc3cnn(CCO)c3C)ncc2c1 [I-59]	≤ 20	≤ 500	> 2500
Cc1nccnc1-c1cc(C(C)C)c2nc(Nc3cn(CCO)nc3Cl)ncc2c1 [I-98]	≤ 20	500 to 1000	500 to 2500
Cc1ccnnc1-c1cc(C2CC2)c2nc(Nc3cn(CCO)nc3C)ncc2c1 [I-119]	≤ 20	500 to 1000	500 to 2500
COc1ncncc1-c1cc(C(C)C)c2nc(Nc3cn(CCO)nc3C)ncc2c1 [I-125]	≤ 20	500 to 1000	> 2500
Cc1ncnc(C)c1-c1cc(C(C)C)c2nc(Nc3cnn(CCO)c3)ncc2c1 [I-140]	≤ 20	500 to 1000	500 to 2500

SMILES	IC50 (BRK-BaF3 cells) [nM]	IC50 (T47D cells) [nM]	IC50 (WT-BaF3 cells) [nM]
Cc1nn(CCO)cc1Nc1ncc2cc(-c3cncnc3C)cc(C3CC3)c2n1 [I-146]	≤ 20	500 to 1000	500 to 2500
Cc1nn(CCO)cc1Nc1ncc2cc(-c3c(C)ncnc3C)cc(C3CC3)c2n1 [I-147]	≤ 20	500 to 1000	500 to 2500
Cc1nn(CCO)cc1Nc1ncc2cc(-c3cc(O)ccc3F)cc(C(C)C)c2n1 [I-160]	≤ 20	≤ 500	100 to 500
Cc1ccc(C#N)cc1-c1cc(C(C)C)c2nc(Nc3cn(CCO)nc3C)ncc2c1 [I-162]	≤ 20	≤ 500	500 to 2500
Cc1nn(CCO)cc1Nc1ncc2cc(-c3c[nH]nc3C)cc(C(C)C)c2n1 [I-187]	≤ 20	≤ 500	500 to 2500
Cc1nn(CCO)cc1Nc1ncc2cc(-c3c(C)n[nH]c3C)cc(C(C)C)c2n1 [I-189]	≤ 20	500 to 1000	500 to 2500
Cc1cc(Nc2ncc3cc(-c4c(C)ncnc4C)cc(C(C)C)c3n2)cnc1P(C)(C)=O [II-45]	≤ 20	–	> 2500
Cc1ncnc(C)c1-c1cc(C(C)C)c2nc(Nc3ccc(P(C)(C)=O)cc3)ncc2c1 [II-50]	20 to 100	–	> 2500
COc1cc(P(C)(C)=O)ccc1Nc1ncc2cc(-c3c(C)ncnc3C)cc(C(C)C)c2n1 [II-53]	20 to 100	–	> 2500
COc1cc(Nc2ncc3cc(-c4c(C)ncnc4C)cc(C(C)C)c3n2)ccc1P(C)(C)=O [II-54]	≤ 20	–	> 2500
Cc1ncnc(C)c1-c1cc(C(C)C)c2nc(Nc3ccc(P(C)(C)=O)c(C)c3F)ncc2c1 [II-56]	≤ 20	–	> 2500
Cc1cc(Nc2ncc3cc(-c4c(C)ncnc4C)cc(C(C)C)c3n2)c(F)cc1P(C)(C)=O [II-59]	20 to 100	–	> 2500
COc1cc(Nc2ncc3cc(-c4cccnc4)cc(C4CC4)c3n2)ccc1P(C)(C)=O [II-65]	–	≤ 500	–
COc1cc(Nc2ncc3cc(-c4cnccc4C)cc(C4CC4)c3n2)ccc1P(C)(C)=O [II-66]	–	≤ 500	–
Cc1nccnc1-c1cc(C)c2nc(Nc3ccc(P(C)(C)=O)cc3)ncc2c1 [II-68]	20 to 100	–	> 2500
COc1cc(Nc2ncc3cc(-c4nccnc4C)cc(C(C)C)c3n2)cc(OC)c1P(C)(C)=O [II-73]	≤ 20	–	500 to 2500
Cc1nccnc1-c1cc(C2CC2)c2nc(Nc3ccc(P(C)(C)=O)c(O)c3)ncc2c1 [II-75]	≤ 20	–	> 2500
Cc1nccnc1-c1cc(C2CC2)c2nc(Nc3cc(O)c(P(C)(C)=O)cc3F)ncc2c1 [II-76]	≤ 20	–	> 2500
